The subject of assay [1] is S. epi. In words: Minimum Inhibitory Concentration (MIC) of various carboxylic acids. Conditions: for potential to inhibit bacteria at an acidic pH: Table 1. The class given is cell-based. The procedure: The following MIC (Minimum Inhibitory Concentration) was done on various carboxylic acids. […] In this case, the MIC was tested in two different growth media. […] The MIC or minimum inhibitory concentration test determines antimicrobial activity of a material against a specific bacteria. The most commonly employed methods are the tube dilution method and agar dilution method. Test products that are not clear or precipitate the growth media are tested by agar dilution method which is similar to the tube dilution method except dilutions are plated on agar. The tube dilution test is the standard method for determining levels of microbial resistance to an antimicrobial agent. Serial dilutions of the test agent are made in a liquid microbial growth medium which is inoculated with a standardized number of organisms and incubated for a prescribed time. The lowest concentration (highest dilution) of test agent preventing appearance of turbidity (growth) is considered to be the minimal/minimum inhibitory concentration (MIC). At this dilution the test agent is bacteriostatic.

The subject of assay [2] is S. epidermidis. In words: Finished Product Soleris Method (detection time, resistance to growth of bacteria). The class given is cell-based. The note with it: Table 3; 1.5% acid in clear gel, 1:10 dilution. As for the experimental part:
The products shown in examples 1-14 in Table 2 were tested for their resistance to the growth of bacteria by the Finished Product Soleris Method in a 1:10 dilution with artificial eccrine, pH 6, non-stabilized as provided by Pickering Solutions.
The products shown in examples 15-30 in Table 5 were tested for their resistance to the growth of bacteria by the Finished Product Soleris Method in a 1:10 dilution with artificial eccrine, pH 6, non-stabilized as provided by Pickering Solutions.
The products shown in examples 31-34 in table 8 were tested for their resistance to the growth of bacteria by the Finished Product Soleris Method in a 1:10 dilution with artificial eccrine, pH 6, non-stabilized as provided by Pickering Solutions.
Sample preparation is done in the following manner. The product to be tested is weighed into a vial at a ratio of 1 part product to 10 parts Artificial Eccrine, custom pH 6, non-stabilized as obtained by Pickering Laboratories (cat. No. 1700-0023). In some cases where products have a higher hostility, the dilution in a particular study may be 1 part deodorant product to 100 parts Artificial Eccrine, custom pH 6, non-stabilized. Products are heated to 72° C. for 30 minutes to melt solid products and facilitate dispersion into the artificial eccrine. […] There may be some insoluble media present after dispersion. The dilutions remainder of the procedure is described below in “Analyzing via Soleris”.
• S. epidermidis grown overnight on tryptic soy agar (37 C) • Colony from agar is suspended in 25 ml tryptic soy broth in baffled flask, and incubated overnight on shaking platform (37 C) • 1 ml of overnight culture is diluted into 9 ml of sterile H2O (this serves as the inoculum for experimental formulas) • For testing liquid products, 5 ml of experimental formula transferred to 15 ml conical tube. For testing solid formulations, a 48 or 96-well tissue culture plates is used, with each well containing 100 ul of solidified formulations. Alternately, for solid formulations, collect […] and apply 10-20 g of water and let sit at least 1 hour. […]

Where [3] appears, read: growth media pH 4.2, read-out: MIC S. epi pH 4.2.
The mark [4] stands for this setting: growth media pH 7.2, read-out: MIC S. epi pH 7.2.

≈ marks a conversion by molar mass, not a printed value. Like-named read-outs stand apart in the source and are kept apart here. Bounds are passed on as bounds.

Broadly, the MIC is the lowest concentration that inhibits growth of the organism. On to `CCCCCCCC(=O)Oc1ccccc1C(=O)O` [Capryloyl Salicylic Acid], for which the “potential to inhibit bacteria at an acidic pH” value (“potential to inhibit bacteria” for short) in assay [1] is “greatest potential to inhibit bacteria at an acidic pH”. Further, the figures for the minimum inhibitory concentration (MIC) in assay [1] (setting [3]) and in assay [1] (setting [4]) were 4 µg/mL (≈ 15.1 µM) and 125 µg/mL (≈ 473 µM), respectively.

`O=C(O)C(O)c1ccccc1` (stereo not shown) [Mandelic Acid]: the “potential to inhibit bacteria” value in assay [1] is “greatest potential to inhibit bacteria at an acidic pH”. For the same molecule, the MIC in assay [1] (setting [3]) is 312 µg/mL (≈ 2050 µM); in assay [1] (setting [4]) it was above 2500 µg/mL. Besides, in assay [2], the “ability to prevent the growth of bacteria” value (“ability” for short) is recorded as “strong ability to prevent the growth of bacteria”.

As for `CCCCCCCCC(O)C(=O)O` (stereo not shown) [Hydroxycapric Acid], the “potential to inhibit bacteria” value in assay [1] was “greatest potential to inhibit bacteria at an acidic pH”. Further, the “MIC S. epi pH 4.2” value in assay [1] (growth media pH 4.2) is 15.6 ppm. In assay [1] (growth media pH 7.2), the “MIC S. epi pH 7.2” value is above 2500 ppm. The “ability” value in assay [2] is “strong ability to prevent the growth of bacteria”.

For `O=C(O)c1ccc(O)c(O)c1` [Protocatechuic Acid], the minimum inhibitory concentration (MIC) was 500 µg/mL (≈ 3240 µM) in assay [1] (setting [3]) and above 500 µg/mL in assay [1] (setting [4]).

With `O=c1cc(CO)occ1O` [Kojic Acid], the MIC in assay [1] (setting [3]) and in assay [1] (setting [4]) was above 500 µg/mL in each case.

With `O=C(O)c1ccccc1O` [salicylic acid, reference compound], in assay [2], the “ability” value is “strong ability to prevent the growth of bacteria”.

Turning to `O=C(O)CCCCCCCC(=O)O` [Azelaic Acid, reference compound], the “potential to inhibit bacteria” value in assay [1] was “greatest potential to inhibit bacteria at an acidic pH”. Besides, the results for the MIC in assay [1] (setting [3]) and in assay [1] (setting [4]) were 125 µg/mL (≈ 664 µM) and above 500 µg/mL, respectively.
